Assay results from ChEMBL document CHEMBL3393000, “Synthesis and anticancer activity of some 8-substituted-7-methoxy-2H-chromen-2-one derivatives toward hepatocellular carcinoma HepG2 cells” (Eur J Med Chem, 2015).

Assays:
HepG2 [1] = experiment: Cytotoxicity against human HepG2 cells assessed as reduction in cell viability after 72 hrs by MTT assay; format: functional, cell-based; settings: HepG2, 72 h
[2] = biological target: Telomerase reverse transcriptase (Homo sapiens) (UniProt O14746); experiment: Inhibition of telomerase in human HepG2 cells at 1 uM after 2 days by TRAP-ELISA method; format: cell-based
[3] = biological target: Telomerase reverse transcriptase (Homo sapiens) (UniProt O14746); experiment: Inhibition of telomerase in human HepG2 cells at 2 uM after 2 days by TRAP-ELISA method; format: cell-based
[4] = biological target: Telomerase reverse transcriptase (Homo sapiens) (UniProt O14746); experiment: Inhibition of telomerase in human HepG2 cells at 2 uM after 1 day by TRAP-ELISA method; format: cell-based
[5] = biological target: Telomerase reverse transcriptase (Homo sapiens) (UniProt O14746); experiment: Inhibition of telomerase in human HepG2 cells at 4 uM after 2 days by TRAP-ELISA method; format: cell-based
[6] = biological target: Telomerase reverse transcriptase (Homo sapiens) (UniProt O14746); experiment: Inhibition of telomerase in human HepG2 cells at 2 uM after 3 days by TRAP-ELISA method; format: cell-based
[7] = biological target: Telomerase reverse transcriptase (Homo sapiens) (UniProt O14746); experiment: Inhibition of telomerase in human HepG2 cells at 4 uM after 1 day by TRAP-ELISA method; format: cell-based
[8] = biological target: Telomerase reverse transcriptase (Homo sapiens) (UniProt O14746); experiment: Inhibition of telomerase in human HepG2 cells at 4 uM after 3 days by TRAP-ELISA method; format: cell-based
[9] = biological target: Telomerase reverse transcriptase (Homo sapiens) (UniProt O14746); experiment: Inhibition of telomerase in human HepG2 cells at 1 uM after 1 day by TRAP-ELISA method; format: cell-based
[10] = biological target: Telomerase reverse transcriptase (Homo sapiens) (UniProt O14746); experiment: Inhibition of telomerase in human HepG2 cells at 1 to 4 uM after 1 to 3 days by TRAP-ELISA method; format: cell-based
[11] = biological target: Telomerase reverse transcriptase (Homo sapiens) (UniProt O14746); experiment: Inhibition of telomerase in human HepG2 cells at 1 uM after 3 days by TRAP-ELISA method; format: cell-based
HepG2 [12] = experiment: Induction of apoptosis in human HepG2 cells at 0.01 to 0.08 umol/ml after 24 hrs by annexin V-FITC/propidium iodide staining based flow cytometry; format: functional, cell-based
HepG2 [13] = experiment: Induction of apoptosis in human HepG2 cells at 0.01 umol/ml after 24 hrs by annexin V-FITC/propidium iodide staining based flow cytometry (reference value: 0.54%); format: functional
HepG2 [14] = experiment: Induction of apoptosis in human HepG2 cells at 0.08 umol/ml after 24 hrs by annexin V-FITC/propidium iodide staining based flow cytometry (reference value: 0.54%); format: functional
HepG2 [15] = experiment: Induction of apoptosis in human HepG2 cells at 0.02 umol/ml after 24 hrs by annexin V-FITC/propidium iodide staining based flow cytometry (reference value: 0.54%); format: functional
HepG2 [16] = experiment: Induction of apoptosis in human HepG2 cells at 0.04 umol/ml after 24 hrs by annexin V-FITC/propidium iodide staining based flow cytometry (reference value: 0.54%); format: functional

Telomerase reverse transcriptase (Homo sapiens), sequence (O14746 whole entry): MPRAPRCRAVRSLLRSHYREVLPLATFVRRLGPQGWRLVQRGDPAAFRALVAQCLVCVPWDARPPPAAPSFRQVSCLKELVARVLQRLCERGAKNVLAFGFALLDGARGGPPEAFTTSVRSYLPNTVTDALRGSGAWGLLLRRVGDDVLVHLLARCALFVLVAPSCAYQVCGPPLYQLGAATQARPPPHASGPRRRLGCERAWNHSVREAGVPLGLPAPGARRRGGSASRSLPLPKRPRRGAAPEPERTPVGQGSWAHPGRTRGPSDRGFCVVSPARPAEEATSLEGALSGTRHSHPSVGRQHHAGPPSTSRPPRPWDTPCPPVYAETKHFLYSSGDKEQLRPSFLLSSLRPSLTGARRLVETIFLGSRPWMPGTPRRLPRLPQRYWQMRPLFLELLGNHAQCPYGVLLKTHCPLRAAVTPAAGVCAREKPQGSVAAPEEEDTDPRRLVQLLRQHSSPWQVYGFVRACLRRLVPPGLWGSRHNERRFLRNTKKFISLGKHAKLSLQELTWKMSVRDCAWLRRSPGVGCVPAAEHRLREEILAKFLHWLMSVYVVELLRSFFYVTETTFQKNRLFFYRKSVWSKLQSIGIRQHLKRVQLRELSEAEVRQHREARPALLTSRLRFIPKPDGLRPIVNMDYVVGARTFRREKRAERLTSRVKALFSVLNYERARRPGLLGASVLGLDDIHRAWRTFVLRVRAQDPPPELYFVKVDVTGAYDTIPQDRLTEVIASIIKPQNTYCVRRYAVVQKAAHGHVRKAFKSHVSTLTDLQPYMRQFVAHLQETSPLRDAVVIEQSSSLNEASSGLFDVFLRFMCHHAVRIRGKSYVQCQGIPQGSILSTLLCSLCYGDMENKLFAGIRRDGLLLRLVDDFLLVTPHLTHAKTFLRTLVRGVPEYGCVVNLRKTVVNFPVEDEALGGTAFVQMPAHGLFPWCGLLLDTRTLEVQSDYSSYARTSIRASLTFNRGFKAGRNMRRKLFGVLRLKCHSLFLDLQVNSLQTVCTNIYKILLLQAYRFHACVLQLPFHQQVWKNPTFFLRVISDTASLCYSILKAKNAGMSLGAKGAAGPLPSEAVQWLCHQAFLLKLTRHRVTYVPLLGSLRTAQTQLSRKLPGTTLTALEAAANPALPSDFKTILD

COc1ccc2ccc(=O)oc2c1C1=NN(C(N)=O)C(c2ccc(C(F)(F)F)cc2)C1 (configuration not stated)
IC50 (HepG2 [1]): 96 nM

COc1ccc2ccc(=O)oc2c1C1=NNC(c2cccs2)C1 (configuration not stated)
inhibition [2]: 21.5%
inhibition [3]: 33.1%
inhibition [4]: 22.3%
inhibition [5]: 62.6%
inhibition [6]: 44.6%
inhibition [7]: 31%
inhibition [8]: 75.5%
inhibition [9]: 18.6%
inhibition [10]: Dose-dependent effect
IC50 (HepG2 [1]): 11 nM
inhibition [11]: 28.9%

COc1ccc2ccc(=O)oc2c1C1=NNC(c2ccc(C)cc2)C1 (configuration not stated)
IC50 (HepG2 [1]): 43 nM

COc1ccc2ccc(=O)oc2c1C1=NN(C(N)=O)C(c2ccc(C)cc2)C1 (configuration not stated)
IC50 (HepG2 [1]): 46 nM

COc1ccc2ccc(=O)oc2c1C(/C=C/c1ccccc1)=N/NC(N)=O
IC50 (HepG2 [1]): 82 nM

COc1cccc2c1C(=O)c1c(O)c3c(c(O)c1C2=O)C[C@@](O)(C(=O)CO)C[C@@H]3O[C@H]1C[C@H](N)[C@H](O)[C@H](C)O1 [DOXORUBICIN]
IC50 (HepG2 [1]): 630 nM

COc1ccc2ccc(=O)oc2c1C1=NN(C(N)=O)C(c2cccs2)C1 (configuration not stated)
IC50 (HepG2 [1]): 26 nM

COc1ccc2ccc(=O)oc2c1C1=NN(C(C)=O)C(c2ccc(C)cc2)C1 (configuration not stated)
IC50 (HepG2 [1]): 50 nM

COc1ccc2ccc(=O)oc2c1C1=NN(C(N)=O)C(c2ccc(SC)cc2)C1 (configuration not stated)
inhibition [2]: 17.6%
inhibition [3]: 27.1%
inhibition [4]: 18.2%
inhibition [5]: 51.2%
inhibition [6]: 36.5%
inhibition [7]: 25.3%
inhibition [8]: 61.7%
inhibition [9]: 15.2%
inhibition [10]: Dose-dependent effect
IC50 (HepG2 [1]): 18 nM
inhibition [11]: 23.6%

COc1ccc2ccc(=O)oc2c1C(/C=C/c1ccc(C)cc1)=N/NC(N)=O
IC50 (HepG2 [1]): 93 nM

COc1ccc2ccc(=O)oc2c1C1=NN(c2ccccc2)C(c2cccs2)C1 (configuration not stated)
inhibition [2]: 19.4%
inhibition [3]: 30%
inhibition [4]: 20.1%
inhibition [5]: 56.6%
inhibition [6]: 40.3%
inhibition [7]: 28%
inhibition [8]: 68.3%
inhibition [9]: 16.8%
inhibition [10]: Dose-dependent effect
IC50 (HepG2 [1]): 15 nM
inhibition [11]: 26.1%

COc1ccc2ccc(=O)oc2c1C1=NN(C(C)=O)C(c2ccc(SC)cc2)C1 (configuration not stated)
IC50 (HepG2 [1]): 42 nM

COc1ccc2ccc(=O)oc2c1C(/C=C/c1ccc(C(F)(F)F)cc1)=N/NC(N)=O
IC50 (HepG2 [1]): 96 nM

COc1ccc2ccc(=O)oc2c1C1=NN(c2ccccc2)C(c2ccc(SC)cc2)C1 (configuration not stated)
IC50 (HepG2 [1]): 78 nM

COc1ccc2ccc(=O)oc2c1C1=NN(C(C)=O)C(c2ccc(C(F)(F)F)cc2)C1 (configuration not stated)
IC50 (HepG2 [1]): 80 nM

COc1ccc2ccc(=O)oc2c1C1=NN(c2ccccc2)C(c2ccccc2)C1 (configuration not stated)
IC50 (HepG2 [1]): 73 nM

COc1ccc2ccc(=O)oc2c1C1=NN(C(C)=O)C(c2cccs2)C1 (configuration not stated)
IC50 (HepG2 [1]): 75 nM

COc1ccc2ccc(=O)oc2c1C1=NNC(c2ccc(SC)cc2)C1 (configuration not stated)
Activity (HepG2 [12]): Dose-dependent effect
inhibition [2]: 22.4%
inhibition [3]: 34.5%
inhibition [4]: 23.2%
inhibition [5]: 65.2%
Activity (HepG2 [13]): 25.45%
Activity (HepG2 [14]): 46.85%
inhibition [6]: 46.4%
inhibition [7]: 32.3%
inhibition [8]: 78.6%
inhibition [9]: 19.4%
inhibition [10]: Dose-dependent effect
IC50 (HepG2 [1]): 10 nM
Activity (HepG2 [15]): 35%
inhibition [11]: 30.1%
Activity (HepG2 [16]): 40.96%

COc1ccc2ccc(=O)oc2c1C1=NNC(c2ccccc2)C1 (configuration not stated)
IC50 (HepG2 [1]): 48 nM

COc1ccc2ccc(=O)oc2c1C1=NN(C(C)=O)C(c2ccccc2)C1 (configuration not stated)
IC50 (HepG2 [1]): 52 nM

COc1ccc2ccc(=O)oc2c1C1=NN(C(N)=O)C(c2ccccc2)C1 (configuration not stated)
IC50 (HepG2 [1]): 90 nM

COc1ccc2ccc(=O)oc2c1C(/C=C/c1ccc(SC)cc1)=N/NC(N)=O
IC50 (HepG2 [1]): 99 nM

CN[C@@H]1C[C@H]2O[C@@](C)([C@@H]1OC)n1c3ccccc3c3c4c(c5c6ccccc6n2c5c31)C(=O)NC4
inhibition [2]: 11.3%
inhibition [3]: 18.9%
inhibition [4]: 12.7%
inhibition [5]: 40.1%
inhibition [6]: 28.7%
inhibition [7]: 30.1%
inhibition [8]: 56.5%
inhibition [9]: 10.7%
inhibition [10]: Dose-dependent effect
inhibition [11]: 15.4%

COc1ccc2ccc(=O)oc2c1C1=NNC(c2ccc(C(F)(F)F)cc2)C1 (configuration not stated)
inhibition [2]: 20.2%
inhibition [3]: 31.2%
inhibition [4]: 21%
inhibition [5]: 59%
inhibition [6]: 42%
inhibition [7]: 29.2%
inhibition [8]: 71.1%
inhibition [9]: 17.5%
inhibition [10]: Dose-dependent effect
IC50 (HepG2 [1]): 13 nM
inhibition [11]: 27.2%

COc1ccc2ccc(=O)oc2c1CC=C(C)C [OSTHOLE]
IC50 (HepG2 [1]): 161000 nM

COc1ccc2ccc(=O)oc2c1C1=NN(c2ccccc2)C(c2ccc(C)cc2)C1 (configuration not stated)
IC50 (HepG2 [1]): 51 nM

COc1ccc2ccc(=O)oc2c1C1=NN(c2ccccc2)C(c2ccc(C(F)(F)F)cc2)C1 (configuration not stated)
IC50 (HepG2 [1]): 38 nM

COc1ccc2ccc(=O)oc2c1C(/C=C/c1cccs1)=N/NC(N)=O
IC50 (HepG2 [1]): 75 nM
